We go through 6 compounds from patent US7341857B2, “Production of beta-hydroxypalmitate methyl esterase from Ideonella sp.0-0013 (FERM BP-08660)” (Incorporated Administrative Agency National Agriculture and …, priority 2003, dated 2008).

The subject of assay [1] is esterase derived from Ideonella sp. 0-0013 strain. Kind of assay: Inhibition, activation and stabilization of the esterase. The assay is classed as biochemical. On the procedure: Methyl 3-hydroxypalmitate is detected by gas chromatography with a column of Stabilwax-DA, 30 m×0.53 mm×0.25 μm. The 3-hydroxypalmitic acid generated by hydrolysis of the ester can be detected by the same gas chromatography as described above. • (2) Optimal temperature for functioning: The optimal temperature of the enzyme of the present invention is 37° C. • (3) Optimal pH and stable pH range: pH 7 or more to pH 10 or less. • (4) Temperature stability: 97% of the enzyme is stable at 43° C., 54% of the enzyme is stable at 50° C., and 38% of the enzyme is stable at 60° C. • (5) Inhibition, activation, and stabilization: Activated by sodium ion and potassium ion, and inhibited by strontium ion, iron ion (divalent), and methyl palmitate. • (6) Molecular weight: About 46,500 Da (by SDS-PAGE), about 41,000 Da (by a gel filtration method). • (7) Isoelectric point: pI 4 (by polyacrylamide gel isoelectric focusing method).

For assay [2] the test system is unchanged. In words: Decomposing activities of methyl palmitate or methyl 3-hydroxypalmitate (Test Example 2, substrate selectivity). It is filed as biochemical. The following applies: for Decomposition: 0.5 mg of substrate; for Activity ratio: methyl 3-hydroxypalmitate = 100.0. As to the method: The culture broth obtained by cultivating the strain in the same manner as that in Example 1 was centrifuged to obtain a supernatant and microbial cells. The supernatant or the microbial cells were suspended in 200 μL of 10 mM potassium phosphate buffer (pH 7.0) containing 0.5 mg of methyl 3-hydroxypalmitate, and the resultant was allowed to react at 43° C. for 12 hours.
After completion of the reaction, 500 μL of dichloromethane was added to the reaction mixture to extract 3-hydroxypalmitic acid. The extract was subjected to gas chromatography (Stabilwax-DA, 30 m×0.53 mm×0.25 μm) to measure the decomposing activity of methyl 3-hydroxypalmitate.
0.5 mg of methyl palmitate or methyl 3-hydroxypalmitate was reacted and analyzed in the same manner as that in Example 1 and the decomposing activities of the compounds were measured in each case.

For the compound `[Fe+2]` [iron ion (divalent)], the “Inhibition, activation, and stabilization (effect on the esterase)” value (shortened to “Inhibition, activation”) in assay [1] is given as “inhibited”. As for `CCCCCCCCCCCCCCCC(=O)OC` [Methyl palmitate, methyl palmitate], in assay [2], the Decomposition was 10.3% and the Activity ratio amounted to 20.5. The “Inhibition, activation” value in assay [1] is given as “inhibited”. `[Na+]` [sodium ion]: the “Inhibition, activation” value in assay [1] was “Activated”. The same measure, in the same setting: then `[K+]` [potassium ion], with “Activated”; and `[Sr+2]` [strontium ion], with “inhibited”. Consider `CCCCCCCCCCCCCC(O)CC(=O)OC` (stereo not shown) [Methyl 3-hydroxypalmitate, methyl 3-hydroxypalmitate], for which, in assay [2], the “hydrolytic activity relative to that for methyl palmitate” value is “about 5 times”, the Decomposition came out at 50.3% and the Activity ratio was determined as 100.0.
